One data set deals with T1, Na-Pi cotransporter (Rattus norvegicus, UniProt Q06496).
T1 construct: from tissue; host or cells: rat renal cortex, brush border membrane vesicles
T1 sequence (Q06496 1-637): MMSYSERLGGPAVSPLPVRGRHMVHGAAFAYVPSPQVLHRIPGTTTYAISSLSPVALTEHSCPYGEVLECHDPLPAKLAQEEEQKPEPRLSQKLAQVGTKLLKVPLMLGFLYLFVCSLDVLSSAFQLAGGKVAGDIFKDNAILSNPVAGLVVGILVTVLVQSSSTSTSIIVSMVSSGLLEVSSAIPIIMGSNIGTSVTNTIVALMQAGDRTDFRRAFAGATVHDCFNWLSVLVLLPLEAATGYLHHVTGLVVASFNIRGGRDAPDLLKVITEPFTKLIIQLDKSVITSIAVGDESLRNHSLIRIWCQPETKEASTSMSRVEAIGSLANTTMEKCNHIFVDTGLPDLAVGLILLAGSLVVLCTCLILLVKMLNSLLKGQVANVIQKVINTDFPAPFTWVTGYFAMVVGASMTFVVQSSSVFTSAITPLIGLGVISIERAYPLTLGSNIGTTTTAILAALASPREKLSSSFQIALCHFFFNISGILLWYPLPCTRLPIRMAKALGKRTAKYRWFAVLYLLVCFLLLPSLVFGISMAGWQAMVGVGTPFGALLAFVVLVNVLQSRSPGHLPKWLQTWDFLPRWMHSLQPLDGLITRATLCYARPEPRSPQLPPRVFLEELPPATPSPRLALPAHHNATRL
Nature of the data set: Na+-gradient-dependent 32Pi uptake by renal cortical BBMV (rapid filtration). The class given is biochemical. The procedure:
(§1) The brush border membrane vesicles (BBMV) were prepared from renal cortical tissue of adult male Sprague-Dawley rats of an average body weight of about 220 grams. Rats were fed ad libitum standard rat chow containing 0.7% Pi and had free access to distilled water. Rats were sacrificed under anesthesia and dissected renal cortical tissue was used for preparation of BBMV fraction by the divalent cation-precipitation procedure, employed and described in detail in J. Clin. Invest., 67, 1347 (1981) and J. Biol. Chem., 258, 5695 (1983), with the following modifications: (a) MgCl2 instead of CaCl2 was added to crude homogenate (final concentration 10 mM MgCl2) to precipitate membranes other than BBMV; (b) in the final step, BBMV were washed and equilibrated in a medium of pH=7.5, instead of pH=8.5. The enrichment and specific activities of typical BBM enzymes alkaline phosphatase (APases), γ-glutyamyl transferase (γ-GTT), leucineaminopeptidase (LAP) and maltase with use of these modifications were similar as in BBMV fractions prepared in our previous studies. As a final step in the preparative procedure, the BBMV fraction was washed and resuspended in a medium containing 300 mM mannitol and 5 mM Tris-HEPES adjusted to pH=t.5, referred to as "MTH-medium," unless specified otherwise. The analogous BBMV fractions, using the same procedure, were prepared from renal cortices of mongrel dogs, albino mice and New Zealand albino rabbits.
The BBMV uptake of ^32 Pi, D-[^3 H]-glucose, L-[^3 H]-proline and ^22 Na^+ was measured by means of a rapid filtration technique, as described in J. Clin. Invest., 67, 1347 (1981) and Am. J. Physiol., 246, F133-F139 (1984). Also, unless specified otherwise, the medium for the solute uptake assay consisted of following compounds (in final concentrations): 100 mM mannitol, 100 mM NaCl (or 100 mM KC1) and 5 mM Tris-HEPES (pH=7.5) and eitehr 0.1 mM K2 H^32 PO4, or 0.05 mM D-[^3 H]-glucose, or 0.025 mM L-[^3 H]-proline. IN the ^22 Na^+ uptake studies, the assay medium contained 100 mM ^22 NaCl (^22 NaCl about […] per tube), 100 mM mannitol and 5 mM Tris-HEPES (pH 7.5).
In most experiments, the Na^+ -gradient-dependent ^32 Pi uptake in the concentrative "uphill" phase was measured at 20 seconds period. Since Na^+ -independent Pi uptake in this time period was quantitatively minor component (<5%) of the Na^+ -gradient-dependent Pi uptake, it was not routinely subtracted.

Data set [1] is described as follows: Hydrolysis of phosphono-compounds (release of Pi) in the BBMV assay. As to conditions: 1 mM; hydrolysis to release more than 5% Pi. From the text:
Compounds studied in the present experiments which inhibited BBM transport of Pi without hydrolysis to release more than 5% Pi are listed in Table 1.

Data set [2] concerns diffusional uptake of ^22 Na^+ by BBMV. Nature of the data set: Diffusional uptake of 22Na+ by renal BBMV. As to conditions: 1 mM. The format is biochemical, rat. The procedure:
as §1, with “As a final step in the preparative procedure, the BBMV fraction was washed and resuspended in a medium containing 300 mM mannitol and 5 mM Tris-HEPES adjusted to pH=t.5, referred to as "MTH-medium," unless specified otherwise. The analogous BBMV fractions, using the same procedure, were prepared from renal cortices of mongrel dogs, albino mice and New Zealand albino rabbits.” left out
(§2) The BBMV uptake of ^32 Pi, D-[^3 H]-glucose, L-[^3 H]-proline and ^22 Na^+ was measured by means of a rapid filtration technique, as described in J. Clin. Invest., 67, 1347 (1981) and Am. […]

The test system of data set [3] is D-[^3 H]-glucose uptake by BBMV. Description: Na+-gradient-dependent uptake of D-[3H]-glucose by renal BBMV. The format is biochemical, rat. The conditions noted are these: initial uptake 15 sec, FIG. 2. The procedure:
as §1, with “As a final step in the preparative procedure, the BBMV fraction was washed and resuspended in a medium containing 300 mM mannitol and 5 mM Tris-HEPES adjusted to pH=t.5, referred to as "MTH-medium," unless specified otherwise. The analogous BBMV fractions, using the same procedure, were prepared from renal cortices of mongrel dogs, albino mice and New Zealand albino rabbits.” left out
as §2

Data set [4] concerns L-[^3 H]-proline uptake by BBMV. Nature of the data set: Na+-gradient-dependent uptake of L-[3H]-proline by renal BBMV. The conditions noted are these: initial uptake 15 sec, FIG. 2. The format is biochemical, rat. On the procedure:
as §1, with “As a final step in the preparative procedure, the BBMV fraction was washed and resuspended in a medium containing 300 mM mannitol and 5 mM Tris-HEPES adjusted to pH=t.5, referred to as "MTH-medium," unless specified otherwise. The analogous BBMV fractions, using the same procedure, were prepared from renal cortices of mongrel dogs, albino mice and New Zealand albino rabbits.” left out
as §2

“Also recorded” adds a separate entry of the source.

For `NCCP(=O)(O)O` [2-aminoethylphosphonic acid, reference compound], at Na-Pi cotransporter, the “effect on Na+-gradient uptake of Pi by renal BBMV (in words)” value (from here on “effect on Na+-gradient uptake of Pi”) is on record as “lacked the inhibitory effect”.

Broadly, the inhibition is the change of the read-out against control, counted positive when it falls. On to `CC(O)(P(=O)(O)O)P(=O)(O)O` [EHDP, disodium ethane-1-hydroxy-1,1-diphosphonate, reference compound], for which the “Note: hydrolysis” value in data set [1] is “no”. The inhibition at 1000 µM on Na-Pi cotransporter (1 mM, initial uptake at 20 sec, rat kidney cortex BBMV, read-out: Δ% (inhibition as percent decrease from control) of Na+-gradient-dependent 32Pi uptake) was -27%.

`O=P(O)(O)CP(=O)(O)O` [MDP, Methylenediphosphonic acid, reference compound]: on Na-Pi cotransporter (5 mM, initial uptake at 20 sec, rat kidney cortex BBMV, read-out: Δ% (inhibition as percent decrease from control) of Na+-gradient-dependent 32Pi uptake), the inhibition at 5000 µM was -21%.

On to `O=C(O)P(=O)(O)O` [PFA, phosphonoformic acid], for which, in data set [2] (equilibrium, control 166 ± 25), the “22Na+ uptake 120 min” value worked out at 192 ± 30 nmoles/mg protein. Further, the “22Na+ uptake 20 sec” value in data set [2] (mean ± SEM of 3 experiments, control 42 ± 4) is 45 ± 3 nmoles/mg protein. The “effect on Na+-gradient-dependent uptake of D-[3H]-glucose” value in data set [3] is on record as “no inhibitory effect”. Further, the “effect on Na+-gradient-dependent uptake of L-[3H]-proline” value in data set [4] is recorded as “no inhibitory effect”.

As to `O=C(O)CCP(=O)(O)O` [PPA, phosphonopropionic acid, reference compound], at Na-Pi cotransporter, the “effect on Na+-gradient uptake of Pi” value was “inactive”.

`O=P(O)(O)CO` [hydroxymethylphosphonic acid, reference compound]: the “effect on Na+-gradient uptake of Pi” value on Na-Pi cotransporter is “without effect; also recorded: lacked the inhibitory effect”.

With `O=P(O)(O)c1ccccc1` [phenylphosphonic acid, reference compound], the “effect on Na+-gradient uptake of Pi” value on Na-Pi cotransporter is given as “without effect; also recorded: lacked the inhibitory effect”.

Consider `COC(=O)CP(=O)(OC)OC` [trimethylester of PAA, reference compound], for which the “effect on Na+-gradient uptake of Pi” value on Na-Pi cotransporter is reported as “without inhibitory effort”.

Regarding `COC(=O)P(=O)(OC)OC` [trimethylester of TPFA, reference compound], the “effect on Na+-gradient uptake of Pi” value at Na-Pi cotransporter is given as “without inhibitory effort”.

These data come from US4806532A, “Inhibition of epithelial phosphate transport” (Mayo Foundation for Medical Education and Research, priority 1985, dated 1989).
